# What was measured:
# immature female mice = assay: In vivo ovulation induction assay for LH bioactivity in immature female mice; design: species or system mouse; settings: 50 mg/kg p.o., FSH-primed immature female mice, 24 h after administration
# From the text: In female immature mice which are stimulated with follicle stimulating hormone (FSH), ovulation can be induced by luteininzing hormone (LH) or by human chorionic gonadotrophin (hCG) which binds to the same LH-receptor on the Graafian follicles. Binding to the LH-receptor initiates a biochemical cascade, which eventually results in follicular rupture and extrusion of a mature oocyte. To measure the in vivo activity of LH-agonistic compounds, inunature 20 days old mice (B6D2F1 stain, Broekman Institute, the Netherlands) are primed with unary FSH (Humegon; 12.5 IU/l, 0.1 ml s.c.) to initiate folliculogenesis. Forty-eight hours after FSH treatment test compound, reference compound or vehicle (10% cremophor solution) are administered to the animals. Test compounds (50 mg/kg in 0.1 ml) and vehicle (0.1 ml) are administered p.o., reference compounds (500 IU/kg hCG in 0.1 ml) are injected s.c. As a reference, hCG in-house standards are used which are calibrated against International Reference preparations of human hCG provided by the National Institute for Biological Standards and Controls (NMSC, London, UK). Twenty-four hours after administration of test compound, reference compound or vehicle, animals are killed by cervical dislocation. The oviducts are dissected and collected in 0.9% NaCl. Next, the oviducts are placed between two glass plates and examined for the presence or absence of ovulated ova under a microscope. The number of ovulated ova present in the oviducts is indicative for in vivo LH-bioactivity.
# Leydig cell LH receptor = molecular target: T1, Leydig cell LH receptor (Mus musculus, UniProt P30730); assay: In vitro test for LH bioactivity in mouse Leydig cells (testosterone production); format: cell-based; settings: 4 h incubation, testosterone measured by RIA
# T1 construct: Leydig cells are isolated from the testes of mature, 9 to 13 weeks old, mice; from tissue; host or cells: primary Leydig cells from mouse testes (strain HSD/Cpb: S E, Harlan)
# T1 sequence (P30730 27-700): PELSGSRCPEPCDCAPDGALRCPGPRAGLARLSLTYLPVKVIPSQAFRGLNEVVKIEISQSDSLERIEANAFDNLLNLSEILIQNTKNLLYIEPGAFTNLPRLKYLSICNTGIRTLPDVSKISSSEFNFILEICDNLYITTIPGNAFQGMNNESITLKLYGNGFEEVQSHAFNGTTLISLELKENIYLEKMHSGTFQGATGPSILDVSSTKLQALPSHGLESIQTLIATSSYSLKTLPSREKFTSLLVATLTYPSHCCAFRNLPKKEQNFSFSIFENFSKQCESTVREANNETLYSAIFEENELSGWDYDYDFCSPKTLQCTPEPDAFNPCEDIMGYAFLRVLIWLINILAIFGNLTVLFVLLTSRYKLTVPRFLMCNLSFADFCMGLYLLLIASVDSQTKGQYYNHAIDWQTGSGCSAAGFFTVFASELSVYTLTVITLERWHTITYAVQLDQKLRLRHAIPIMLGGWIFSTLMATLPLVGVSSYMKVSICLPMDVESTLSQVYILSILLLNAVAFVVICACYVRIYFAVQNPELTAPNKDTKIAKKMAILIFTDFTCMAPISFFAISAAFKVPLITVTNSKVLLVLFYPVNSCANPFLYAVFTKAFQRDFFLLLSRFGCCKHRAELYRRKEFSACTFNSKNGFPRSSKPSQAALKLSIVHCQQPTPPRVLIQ
# From the text: In male mice, the luteinising hormone (LH) induces testosterone production in testicular Leydig cells. […] The in vitro Leydig cell assay (van Damme et al, 1974; modified by Mannaerts et al, 1987) is used to determine the LH bioactivity of compounds that bind to the Leydig cell LH receptor which in turn causes testosterone production.
# For this assay, Leydig cells are isolated from the testes of mature, 9 to 13 weeks old, mice (strain: HSD/Cpb: S E, Harlan, The Netherlands). Therefore, mice are killed and the testes are quickly removed and decapsulated. Each testis is transferred to a separate well of a tissue culture plate containing 0.75 ml culture medium per well. The contents of each well are passed through a 30 cm glass tube (inside diameter 2.5 mm, narrowed to 1.2 mm at 4 places in the middle). The suspension obtained is filtered through a 30 μm nylon mesh and the filtrate is pre-incubated in a 50 ml plastic tube for 30 min. at 37° C. in an incubator in a water-saturated atmosphere of 95% air/5% CO2. Following preincubation the tube is centrifuged at 1600 N/kg for 5 min and the supernatant is decanted. The resulting pellet is resuspended in culture medium (0.5 mg original testis/ml) and the suspension is kept homogeneous by stirring it very slowly on a magnetic stirrer.
# This Leydig cell suspension (100 μl) is added to the wells of a micotiter plate containing 50 μl reference compound, test compound or vehicle (culture medium) per well. As a to reference, LH or hCG in-house standards are used which are calibrated against International Reference preparations of human LH or hCG provided by the National Institute for Biological Standards and Controls (NIBSC, London, UK). Test and reference compounds are dissolved, diluted and assayed in the same culture medium. The plates containing reference and test compounds are incubated for 4 h at 37° C. in an incubator in a water-saturated atmosphere of 95% air/5% CO2. Following incubation, plates are sealed and stored at −20° C. until testosterone measurement.
# Prior to testosterone measurement, the contents of the microtiter plates are thawed at room temperature and the plates are centriged at 150 N/kg for 5 min. An aliquot of 30 μl supernatant of each well is diluted with culture medium (60×) to obtain a suitable dilution for testosterone measurement. Aliquots (12.5 μl) of each diluted test sample are then assayed using a direct testosterone RIA-kit.
SMILES,Mouse in vivo ovulation induction (% ovulating animals) (immature female mice) [%],EC50 (Leydig cell LH receptor) [nM]
"CSc1nc(-c2cccc(OCCCc3cccnc3)c2)c2c(N)c(C(=O)NC(C)(C)C)sc2n1 [Example 117, tert-Butyl 5-Amino-2-methylthio-4-(3-(3-(3-pyridyl)-propoxy)phenyl)-thieno[2,3-d]pyrimidine-6-carboxamide]",40,1800
"CCOc1nc(-c2cccc(OC)c2)c2c(N)c(C(=O)NC(C)(C)C)sc2n1 [Example 114, tert-Butyl 5-Amino-2-ethoxy-4-(3-methoxyphenyl)-thieno[2,3-d]pyrimidine-6-carboxamide]",30,1900
"CSc1nc(-c2cccc(NC(=O)c3ccccc3)c2)c2c(N)c(C(=O)NC(C)(C)C)sc2n1 [Example 111, tert-Butyl 5-Amino-2-methylthio-4-(N-benzoyl-3-aminophenyl)-thieno[2,3-d]pyrimidine-6-carboxamide]",40,280
"COc1cccc(-c2nc(SC)nc3sc(C(=O)N(C)C(C)C)c(N)c23)c1 [Example 113, N-Methyl-N-isopropyl 5-Amino-2-methylthio-4-(3-methoxyphenyl)-thieno[2,3-d]pyrimidine-6-carboxamide]",50,870
"COc1cccc(-c2nc(-c3cccs3)nc3sc(C(=O)N4CCOCC4)c(N)c23)c1 [Example 115, 5-Amino-2-(2-thienyl)-4-(3-methoxyphenyl)-6-(N-morpholinocarbonyl)thieno[2,3-d]pyrimidine]",20,3100
"CSc1nc(-c2cccc(NC(=O)CNC(C)(C)C)c2)c2c(N)c(C(=O)NC(C)(C)C)sc2n1 [Example 116, tert-Butyl 5-Amino-2-methylthio-4-(N-(2-(tert-butylamino)acetyl)-3-aminophenyl)-thieno[2,3-d]pyrimidine-6-carboxamide]",13,320
"COc1cccc(-c2nc(SC)nc3sc(C(=O)NC(C)(C)C)c(N)c23)c1 [Example 112, tert-Butyl 5-Amino-2-methylthio-4-(3-methoxyphenyl)-thieno[2,3-d]pyrimidine-6-carboxamide]",40,430
